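96-well plates; 48 h exposure; 5 concentrations. Endpoints by linear interpolation between flanking doses. Not reached: highest tested concentration assigned. TGI: total growth inhibition.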
What was measured:
Test in all cases: NCI anticancer screen, dose series, 48 h
[1] = system: 786-0 renal
[2] = system: A498 renal
[3] = system: A549 NSCLC
[4] = system: ACHN renal
[5] = system: BT-549 breast
[6] = system: CAKI-1 renal
[7] = system: CCRF-CEM leukemia
[8] = system: COLO 205 colon
[9] = system: DU-145 prostate
[10] = system: EKVX NSCLC
[11] = system: HCC-2998 colon
[12] = system: HCT-116 colon
[13] = system: HCT-15 colon
[14] = system: HL-60(TB) leukemia
[15] = system: HOP-62 NSCLC
[16] = system: HOP-92 NSCLC
[17] = system: HS 578T breast
[18] = system: HT29 colon
[19] = system: IGROV1 ovarian
[20] = system: K-562 leukemia
[21] = system: KM12 colon
[22] = system: LOX IMVI melanoma
[23] = system: M14 melanoma
[24] = system: MALME-3M melanoma
[25] = system: MCF7 breast
[26] = system: MDA-MB-231 breast
[27] = system: MDA-MB-435
[28] = system: MDA-N
[29] = system: MOLT-4 leukemia
[30] = system: NCI-H226 lung
[31] = system: NCI-H23 lung
[32] = system: NCI-H460 lung
[33] = system: NCI-H522 lung
[34] = system: NCI/ADR-RES ovarian
[35] = system: OVCAR-3 ovarian
[36] = system: OVCAR-4 ovarian
[37] = system: OVCAR-8 ovarian
[38] = system: PC-3 prostate
[39] = system: RXF 393 renal
[40] = system: SF-268 CNS
[41] = system: SF-295 CNS
[42] = system: SF-539 CNS
[43] = system: SK-MEL-28 melanoma
[44] = system: SK-MEL-5 melanoma
[45] = system: SK-OV-3 ovarian
[46] = system: SN12C renal
[47] = system: SNB-19 CNS
[48] = system: SNB-75 CNS
[49] = system: SW-620 colon
[50] = system: T-47D breast
[51] = system: TK-10 renal
[52] = system: UACC-257 melanoma
[53] = system: UACC-62 melanoma
[54] = system: UO-31 renal
[55] = system: OVCAR-5 ovarian
[56] = system: RPMI-8226 leukemia
[57] = system: SK-MEL-2 melanoma
[58] = system: U251 CNS

Compound `COC(=O)c1cc(C)ccc1CC(Cc1ccccc1C)C(=O)OC` (stereo not drawn) has a TGI [1] of over 100 µM, a TGI [2] of over 100 µM and a TGI [3] of over 100 µM. The TGI [4] was over 100 µM, the TGI [5] was over 100 µM and the TGI [6] was over 100 µM. For the same compound, the TGI [7] was 44.3 µM, the TGI [8] was over 100 µM and the TGI [9] was over 100 µM. For the same compound, the TGI [10] was 76.3 µM, the TGI [11] was over 100 µM and the TGI [12] was over 100 µM. The TGI [13] was over 100 µM, the TGI [14] was 36.3 µM and the TGI [15] was over 100 µM. The TGI [16] was 79.7 µM, the TGI [17] was over 100 µM and the TGI [18] was 94.2 µM. It also gave a TGI [19] of over 100 µM, a TGI [20] of over 100 µM and a TGI [21] of over 100 µM. It also gave a TGI [22] of 28.1 µM, a TGI [23] of over 100 µM and a TGI [24] of over 100 µM. It also gave a TGI [25] of 94.8 µM, a TGI [26] of over 100 µM and a TGI [27] of 43.8 µM. The TGI [28] was over 100 µM, the TGI [29] was 24.7 µM and the TGI [30] was over 100 µM. For the same compound, the TGI [31] was over 100 µM, the TGI [32] was over 100 µM and the TGI [33] was 74.1 µM. It also gave a TGI [34] of over 100 µM, a TGI [35] of over 100 µM and a TGI [36] of over 100 µM. For the same compound, the TGI [37] was over 100 µM, the TGI [38] was over 100 µM and the TGI [39] was 77.6 µM. The TGI [40] was over 100 µM, the TGI [41] was over 100 µM and the TGI [42] was over 100 µM. It also gave a TGI [43] of over 100 µM, a TGI [44] of 28.4 µM and a TGI [45] of over 100 µM. For the same compound, the TGI [46] was over 100 µM, the TGI [47] was over 100 µM and the TGI [48] was over 100 µM. The TGI [49] was over 100 µM, the TGI [50] was over 100 µM and the TGI [51] was over 100 µM. It also gave a TGI [52] of 91.9 µM, a TGI [53] of over 100 µM and a TGI [54] of over 100 µM.
In the case of `CCO[C@H]1C[C@@H](c2ccccc2)[C@]2(C)C[C@H](C(=O)OC)ON2O1`, the TGI [1] is reported as over 100 µM, the TGI [2] is reported as over 100 µM and the TGI [3] is reported as over 100 µM. The TGI [4] was over 100 µM, the TGI [5] was over 100 µM and the TGI [6] was over 100 µM. The TGI [7] was over 100 µM, the TGI [8] was over 100 µM and the TGI [9] was over 100 µM. For the same compound, the TGI [10] was over 100 µM, the TGI [12] was over 100 µM and the TGI [13] was over 100 µM. It also gave a TGI [14] of over 100 µM, a TGI [15] of over 100 µM and a TGI [16] of over 100 µM. It also gave a TGI [17] of over 100 µM, a TGI [18] of over 100 µM and a TGI [19] of over 100 µM. For the same compound, the TGI [20] was over 100 µM, the TGI [21] was over 100 µM and the TGI [22] was over 100 µM. The TGI [23] was over 100 µM, the TGI [24] was over 100 µM and the TGI [25] was over 100 µM. For the same compound, the TGI [26] was over 100 µM, the TGI [27] was over 100 µM and the TGI [28] was over 100 µM. It also gave a TGI [29] of over 100 µM, a TGI [30] of over 100 µM and a TGI [31] of over 100 µM. It also gave a TGI [33] of over 100 µM, a TGI [34] of over 100 µM and a TGI [35] of over 100 µM. For the same compound, the TGI [36] was over 100 µM, the TGI [55] was over 100 µM and the TGI [37] was over 100 µM. It also gave a TGI [38] of over 100 µM, a TGI [56] of over 100 µM and a TGI [39] of over 100 µM. For the same compound, the TGI [40] was over 100 µM, the TGI [41] was over 100 µM and the TGI [42] was over 100 µM. It also gave a TGI [57] of over 100 µM, a TGI [43] of over 100 µM and a TGI [44] of over 100 µM. It also gave a TGI [46] of over 100 µM, a TGI [47] of over 100 µM and a TGI [49] of over 100 µM. For the same compound, the TGI [50] was over 100 µM, the TGI [51] was over 100 µM and the TGI [58] was over 100 µM. It also gave a TGI [52] of over 100 µM, a TGI [53] of over 100 µM and a TGI [54] of over 100 µM.
